Reference: paper PMC3942691, “The Dipeptide Monoester Prodrugs of Floxuridine and Gemcitabine—Feasibility of Orally Administrable Nucleoside Analogs” (Pharmaceuticals, 2014)

Experiments:
[1] = system: Caco-2 cell homogenates; experiment: Enzymatic stability in Caco-2 cell homogenates; format: in vitro ADME; conditions: 500 µg/mL protein, 37 °C
Description: (§1) Confluent Caco-2, Panc-1, and AsPC-1cells were rinsed twice with phosphate buffered saline (PBS). The cells were lysed with phosphate buffer (pH 7.4) by ultrasonication (Micro ultrasonic cell disrupter Model KT40, Kontes, Vineland, NJ, USA), and pelleted by centrifugation for 5 min at 1,000 × g. Protein amount was quantified with the Bio-Rad (Hercules, CA, USA) DC Protein Assay using bovine serum albumin as a standard. The amount of protein was adjusted to 500 µg/mL and hydrolysis reactions were carried out in 96-well plates (Corning). […] The filtrate was then analyzed via reverse-phase HPLC.
(§2) The stability samples of prodrugs and their metabolites, and perfusion samples were determined on an Agilent HPLC system (Agilent Technologies, Santa Clara, CA, USA). […] Standard curves generated for each prodrug and their parent drug were utilized for quantitation of integrated area under peaks. […]
(§3) The experiments concerning drug and their prodrug stability were performed at 37 °C in 0.01 N HCl, SIF (pH 6.0), and pH 7.4 phosphate buffer. […] Prodrug metabolites such as floxuridine, 5-fluorouracil (5-FU), gemcitabine, 2′-deoxy-2′,2′-difluorouridine, uracil, and cytosine were monitored along with prodrug disappearance in this experiment.

[2] = system: Panc-1 cell homogenates; experiment: Enzymatic stability in Panc-1 cell homogenates; format: in vitro ADME; conditions: 500 µg/mL protein, 37 °C
Description: Confluent Caco-2, Panc-1, and AsPC-1cells were rinsed twice with phosphate buffered saline (PBS). The cells were lysed with phosphate buffer (pH 7.4) by ultrasonication (Micro ultrasonic cell disrupter Model KT40, Kontes, Vineland, NJ, USA), and pelleted by centrifugation for 5 min at 1,000 × g. Protein amount was quantified with the Bio-Rad (Hercules, CA, USA) DC Protein Assay using bovine serum albumin as a standard. The amount of protein was adjusted to 500 µg/mL and hydrolysis reactions were carried out in 96-well plates (Corning). Caco-2, Panc-1, and AsPC-1 cell suspensions (250 µL) were placed in triplicate wells, the reactions were started with the addition of substrate, and cells were incubated at 37 °C for 120 min. At the desired time point, sample aliquots (35 µL) were removed and added to acetonitrile (ACN, 150 µL) with 0.1% TFA. The mixtures were filtered with a 0.45 µm filters at 1,000 × g for 10 min at 4 °C. The filtrate was then analyzed via reverse-phase HPLC.
The stability samples of prodrugs and their metabolites, and perfusion samples were determined on an Agilent HPLC system (Agilent Technologies, Santa Clara, CA, USA). The HPLC system consisted of Agilent pumps (1100 series), an Agilent autosampler (1200 series), and an Agilent UV-Vis detector (1100 series) controlled by Chemstation® 32 software (version B.01.03). Samples were resolved in an Agilent Eclipse Plus C18 reverse-phase column (3.5 µm, 4.6 × 75 mm) equipped with a guard column. The mobile phase consisted of 0.1% TFA/water (Solvent A) and 0.1% TFA/acetonitrile (Solvent B) with the solvent B gradient changing from 0%–56% at a rate of […] during a 15 min run for gemcitabine and gemcitabine prodrugs. Standard curves generated for each prodrug and their parent drug were utilized for quantitation of integrated area under peaks. The detection wavelength was 254 nm and spectra were acquired in the 220–380 nm wavelength range. The detection wavelength for phenol red was 430 nm.
as §3

[3] = system: AsPC-1 cell homogenates; experiment: Enzymatic stability in AsPC-1 cell homogenates; format: in vitro ADME; conditions: 500 µg/mL protein, 37 °C
Description: as §1, §2, §3

[4] = system: Caco-2, Panc-1, and AsPC-1 cell homogenates; experiment: Enzymatic stability compared across Caco-2, Panc-1 and AsPC-1 cell homogenates; format: in vitro ADME
Description: as §1
The experiments concerning drug and their prodrug stability were performed at 37 °C in 0.01 N HCl, SIF (pH 6.0), and pH 7.4 phosphate buffer. […] Prodrug metabolites such as floxuridine, 5-fluorouracil (5-FU), gemcitabine, 2′-deoxy-2′,2′-difluorouridine, uracil, and cytosine were monitored along with prodrug disappearance in this experiment. However, the mass balance could not be established because 5-FU, cytosine and uracil were metabolized even further and those metabolites could not be quantified by HPLC [11, 50]. The specific kinetic parameters in drug/prodrug metabolism could not be determined without the mass balance and the data of enzymatic activities and their expression levels because those metabolic activities were simultaneously taken place. […]

[5] = system: AsPC-1 cells; set-up: method as in PMID 18652477; conditions: cited from earlier work
[6] = Enzymatic stability in Caco-2 cell homogenates; format: in vitro ADME; conditions: human, Caco-2, pH 7.4; 500 µg/mL protein, 37 °C; read-out: Caco-2 cell homogenates t1/2
Description: as §1, §2, §3

[7] = Enzymatic stability in AsPC-1 cell homogenates; format: in vitro ADME; conditions: human, AsPC-1 cell homogenates, pH 7.4; 500 µg/mL protein, 37 °C; read-out: AsPC-1 cell homogenates t1/2
Description: as §1, §2, §3

**Q.** With “2′,2′-difluoro-2′-deoxyuridine [Gemcitabine]” as the compound, how does the “Caco-2 cell homogenates t1/2” value [1] read?
**A.** The value was 105.0 ± 6.1 min.

**Q.** What about the “Panc-1 cell homogenates t1/2” value [2] of the same compound?
**A.** Its value is greater than 120 min.

**Q.** What about the “AsPC-1 cell homogenates t1/2” value [3] of the same compound?
**A.** Its value is 33.7 ± 14.5 min.

**Q.** What about the “degradation in AsPC-1 cells compared with Caco-2 and Panc-1 cells” value [4] of the same compound?
**A.** The value was “three- to four- times faster”.

**Q.** With O=c1[nH]c(=O)n([C@H]2C[C@H](O)[C@@H](CO)O2)cc1F [Floxuridine, 5-fluoro-2′-deoxyuridine] as the compound, how does the “degradation in AsPC-1 cells compared with Caco-2 and Panc-1 cells” value [4] read?
**A.** Its value is “two- to six-times faster”.

**Q.** What about the GI50 [5] of the same compound?
**A.** Its GI50 is 22.9 ± 5.7 mM.

**Q.** Which results are given for Nc1ccn(C2OC(COC(=O)C(Cc3ccc(O)cc3)NC(=O)C(N)Cc3ccccc3)C(O)C2(F)F)c(=O)n1 [5′-L-Phenylalanyl-L-tyrosyl-gemcitabine]?
**A.** half-life [6]: 14.7 ± 4.4 min; half-life [7]: 8.1 ± 0.6 min
